Target: T1, Kv11.1 hERG cardiac ion channel (Homo sapiens, UniProt Q12809)
T1 construct: expressed in transfected cells; host or cells: HEK293 (human embryonic kidney cells), stably transfected
Experiment: Kv11.1 (hERG) ion channel activity (patch clamp assay)
Type: cell-based
Settings: HEK293 transfected with hERG
Experimental: Method for the detection and characterisation of test substances which interfere with the Kv11.1 (hERG) channel: Kv11.1 (hERG, human ether a-go-go related gene) is a potassium channel which plays a central role for repolarisation of the cells in the ventricular cardiomyocytes.
The patch-clamp measurement was carried out at room temperature in whole-cell configuration on human embryonic kidney cells (HEK293) which have been transfected in a stable manner with the hERG gene.
The whole-cell configurations were carried out using an automated patch clamp device (Patchliner™, Nanion Technologies, Munich). […]
The cells were clamped to a holding potential of −80 mV. […] DMSO (vehicle control, 0.1% of DMSO) was then applied, and the control current was recorded for 3 min. The test substance was subsequently added twice in the same concentration, and the potassium current was measured for 3.5 min in each case.
If the measurement result of a test substance at an initial concentration of 10 μM was smaller than (−)50% effect (threshold value) (for example (−)60% effect), the test substance was, in order to determine a dose/action relationship, added cumulatively in increasing concentration, where each concentration was measured for 5 min.
The reference substance used was the Kv11.1 (hERG) ion channel blocker quinidine. […] For the calculation, the current was evaluated for the respective final trace. […]

T1 sequence (Q12809 whole entry): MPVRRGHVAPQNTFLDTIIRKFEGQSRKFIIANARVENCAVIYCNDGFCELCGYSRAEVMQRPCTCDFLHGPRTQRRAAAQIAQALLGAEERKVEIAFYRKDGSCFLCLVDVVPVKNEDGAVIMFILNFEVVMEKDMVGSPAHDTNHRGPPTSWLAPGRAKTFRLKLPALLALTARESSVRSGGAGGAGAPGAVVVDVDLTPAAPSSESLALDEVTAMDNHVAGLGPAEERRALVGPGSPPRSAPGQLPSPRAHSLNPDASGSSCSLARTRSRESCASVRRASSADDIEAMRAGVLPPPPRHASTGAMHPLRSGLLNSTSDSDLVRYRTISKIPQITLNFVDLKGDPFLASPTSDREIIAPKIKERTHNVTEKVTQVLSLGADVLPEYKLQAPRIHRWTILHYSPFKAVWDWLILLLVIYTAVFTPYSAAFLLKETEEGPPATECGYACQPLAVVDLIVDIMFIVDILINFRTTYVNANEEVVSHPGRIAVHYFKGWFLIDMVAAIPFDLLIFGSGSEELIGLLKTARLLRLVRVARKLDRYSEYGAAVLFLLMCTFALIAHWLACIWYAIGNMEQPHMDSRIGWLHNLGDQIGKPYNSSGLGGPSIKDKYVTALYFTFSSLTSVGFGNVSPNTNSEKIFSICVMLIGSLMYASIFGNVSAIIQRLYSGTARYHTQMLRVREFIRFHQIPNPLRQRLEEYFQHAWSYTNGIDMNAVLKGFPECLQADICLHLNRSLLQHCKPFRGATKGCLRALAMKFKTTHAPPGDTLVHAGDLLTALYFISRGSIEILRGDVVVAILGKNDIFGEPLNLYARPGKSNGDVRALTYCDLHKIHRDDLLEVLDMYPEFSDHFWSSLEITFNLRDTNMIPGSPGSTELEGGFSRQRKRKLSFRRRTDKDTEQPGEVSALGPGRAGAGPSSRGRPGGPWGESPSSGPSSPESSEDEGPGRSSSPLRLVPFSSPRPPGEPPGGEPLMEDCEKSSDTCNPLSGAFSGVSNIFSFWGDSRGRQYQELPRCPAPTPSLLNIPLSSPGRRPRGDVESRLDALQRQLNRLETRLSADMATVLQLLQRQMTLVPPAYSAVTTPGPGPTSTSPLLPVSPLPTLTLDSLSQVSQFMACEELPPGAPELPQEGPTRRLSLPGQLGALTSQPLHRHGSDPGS

In the case of COc1cc2ncc3c(c2cc1-c1cn(C)nc1C)n(-c1c(F)cncc1OC)c(=O)n3C (single isomer, unassigned) [Compound 1, 8-(1,3-Dimethyl-1H-pyrazol-4-yl)-1-(Sa)-(3-fluoro-5-methoxy-pyridin-4-yl)-7-methoxy-3-methyl-1,3-dihydro-imidazo[4,5-c]quinolin-2-one], the Ki is reported as > 30 µM.
